From US20050214413A1, “Methods and compositions for modified release of nutritional supplements” (Mannatech, Inc., priority 2003, published 2005)
Several values for one entry are separate records, joined by “and”; a condition that tells them apart may be missing. Identical values can stand only once. Entries after “also recorded” stand apart in the source; their conditions may differ.

Experiments:
Format in all cases: biochemical
ORAC(fl-lipo) assay = assay: ORAC(fl-lipo) assay
Source text: FIGS. 12A and 12B are graphs of ORAC(fl-lipo) results using mixed-tocopherol and the relative AUC results using the solvent/water/detergent solution to dissolve the sample and detect both lipohilic and lipophobic anti-oxidant capacity.

[1] = ORAC(fl) assay (fluorescein, method of Ou et al.); conditions: mixed at different ratios with quercetin, standard acetone:water
Experimental: Prior Art Method of Measuring Antioxidant Activity for Comparison. For the ORAC(fl) assay, the method of Ou et al. (Ou , B., Hampsch-Woodill, M. and Prior, R. L., J. Agric. Food Chem. 2001, 49, 4619-4626) was followed. Differences from the Ou procedure as published included the speed of the orbital shaker (Ou, 400 rpm; herein, 280 rpm), and the centrifuge speed (Ou, 14,000 rpm, 15 min; herein, 3200 rpm, 15 min and the length of the assay (Ou, 30 min; herein, 100 min). Fluorescein, sodium salt, was obtained from Aldrich (Milwaukee, Wis.). For the Ou method, a standard amount of fluorescein is added to an antioxidant product being tested, and the beginning level of fluorescence is measured. A free radical initiator is added, and the time and degree of disappearance of fluorescence are measured. Trolox®, 6-Hydroxy-2,5,7,8-tetramethylchroman-2-carboxylic Acid, is a cell-permeable, water-soluble derivative of vitamin E with potent antioxidant properties. Trolox® prevents peroxynitrite-mediated oxidative stress and apoptosis in rat thymocytes and is a synthetic antioxidant that is consistent from lot-to-lot and is used as the standard and run for comparison with each sample. A blank (control) used in calculations of the ORAC(o) value for each samples may be included in each run. Fluorescence vs. time is plotted. The blank (control) is subtracted from every curve. […]

[2] = ORAC(o) assay (dissolved oxygen, oxygen radical absorbance capacity)
Experimental: Method of Measuring Antioxidant Activity. In operation, the ORAC(o) assay of the present invention was used to evaluate antioxidant compositions, combinations and the like of solutions against a target molecule (linoleic acid) with oxygen present at equilibrium with the air. A free radical initiator is added and the time it takes for oxygen to disappear is measured, yielding the rate of disappearance. Trolox® is used as the standard, and a blank is run as a control. Amount of dissolved oxygen vs. time is plotted allowing direct comparison of net areas under the curve. A detailed method is as follows: Buffers (K2HPO4 (F.W. 174.2), NaH2PO4 (FW 120.0)) were obtained from Sigma (St. Louis, Mo.). Linoleic acid 99%, Trolox® (6-hydroxy-2,5,7,8-tetramethylchroman-2-carboxylic acid) 97%, TWEEN® 20, and 2,2'-azobis (2-methylpropionamidine) dihydrochloride 97% (AAPH), were obtained from Aldrich (Milwaukee, Wis.). HPLC grade acetone was obtained from Fisher (Hampton, […] biological oxygen meter was obtained from YSI (Yellow Springs, Ohio) and used according to the manufacturer's specifications. ORAC(o) Method. The following stock solutions were used. […] Weigh 65.33 g into 500 mL of volumetric flask, and add dH20 to the mark. Concentration is 750 mM. Store 750 mM K2HPO4 stock solution in a refrigerator (2 to 8° C.) equipped with a calibrated thermometer. Target temperature is 4° C. 750 mM NaH2PO4 (FW 120.0); Weigh 45.00 g into 500 mL of volumetric flask, and add dH20 to the mark. Concentration is 750 mM. Store 750 mM NaH2PO4 stock solution in a refrigerator (2 to 8° C.) equipped with a calibrated thermometer. Target temperature is 4° C. Mix 40 ml of 750 mM K2HPO4 stock solution and 10 ml of 750 mM NaH2PO4 stock solution (4 to 1 ratio). […] Store stock solution in a refrigerator (2 to 8° C.) equipped with a calibrated thermometer. Target temperature is 4° C. Dilute mixture with dH20 (1:9) to make working solution of ORAC buffer, and measure pH. It should be 7.4. Keep covered at room temperature until ready to use. Tween Preparation. Weigh out 10 g of Tween 20, and add 90 g of deionized water. Cover and stir the mixture overnight. Tween stock solution keeps for one week. Keep on countertop. Solvent Preparation. Mix 25 mL of acetone, 25 mL of deionized water, and 25 mL of Tween 20. Use this solvent to prepare samples. Before a run is performed: the probe should be inspected for damage paying particular attention to the membrane, replace if needed. Probes should be stored with the tips in deionized water. Only one probe and one reaction chamber should be used for this assay. Run a blank and Trolox® (at 10 μg/ml or 0.03995 μmol/ml) every 8 hours. […] The sample concentration and Trolox® concentration should be the same. The dilutions are prepared by weighing out 1 mg of sample and adding 1 ml of solvent to perform the initial extraction. Shake for one hour, place 0.5 ml of the initial extraction solution in a glass scintillation vial, and then add 4.5 ml of solvent, making the first dilution. Vortex the first dilution for about 30 seconds. Its concentration is 0.1 mg/ml or 100 ppm. Take 0.5 ml of the first dilution, put it into another glass scintillation vial, and then add 4.5 ml of solvent, vortex for about 30 seconds, to yield a concentration of 0.01 mg/ml or 10 ppm. Take 0.5 ml of the vial sample and put it into another glass scintillation vial, and then add 4.5 ml of solvent, vortex for about 30 seconds, to yield a concentration of […] are placed in a 4° C. refrigerator. In a 37° C. water bath allow linoleic acid to thaw, and prepare linoleic acid solution (with minimal light) by adding 0.18 mL Tween stock solution, 0.18 mL buffer, and 0.44 mL deionized water to 70.8 mg linoleic acid. Keep solution tube wrapped in foil. Make linoleic acid solution fresh every 8 hours. To prepare the oxygen radical generator, weigh 67.8 mg of AAPH, and dissolve in 0.9 mL buffer. Keep AAPH refrigerated, it may be used for up to eight hours. Shake for 1 hour. […]

SMILES: Cc1c(C)c2c(c(C)c1O)CC[C@@](C)(CCC[C@H](C)CCC[C@H](C)CCCC(C)C)O2 [α-tocopherol]
- ORAC(fl-lipo) AUC, acetone:water:Tween-20 versus acetone:water (ORAC(fl-lipo) assay): large increase in the AUC
- contribution to AO activity [1]: no contribution to AO activity; also recorded: no statistically significant activity could be detected

SMILES: O=c1c(O)c(-c2ccc(O)c(O)c2)oc2cc(O)cc(O)c12 [quercetin]
- Area Under Curve (AUC), 5 Day Mean ([2]; quercetin sample 10 μg/mL): 203.7
- Area under curve, 5 Run Mean ([2]; quercetin sample 10 μg/mL): 202.9
- Area Under Curve (AUC), 5 day trial for precision ([2]; quercetin sample 10 μg/mL, each day average of 3 runs): 202.7 and 212.9 and 187 and 202.9 and 213.1
- Area under curve, single day trial for precision ([2]; quercetin sample 10 μg/mL, separate runs): 207.4 and 198.2 and 205 and 201.6 and 202.1
- Area Under Curve ([2]; sample 1 μg/ml): 124.6
- Area Under Curve ([2]; sample 10 μg/ml): 209.4
- Area Under Curve ([2]; sample 100 μg/ml): 693.6
- Area Under Curve ([2]; sample 500 μg/ml): 2328
- Area Under Curve ([2]; sample 1000 μg/ml): 2870
